Laboratory results taken from patent US20190160156A1, “Use of Acid Stable Proteases in Animal Feed, Preferably to Increase Performance of Cocc-Vaccinated Broiler Chickens” (Novozymes A/S, priority 2011, published 2019).

Test system: male birds Cobb X Cobb chicks
Experiment: Floor pen feeding trial of cocci-vaccinated birds with ProAct and enzyme combinations (Example 3)
Format: in vivo, male broiler chickens (Cobb X Cobb)
Details: Day 42, male Cobb X Cobb broilers
Method: A floor pen trial was conducted using day old male birds Cobb X Cobb chicks. A total of 2,160 were allocated to the study. The experiment consisted of 48 pens of 45 male broiler chickens. Treatments were replicated in eight (8) blocks with six (6) treatments randomized in each. The birds were fed nutritionally-adequate basal diets based on corn/soybean meal and adjusted to the bird age by feeding a starter diet from day 1 to 16 and a grower diet from day 17 to 32 and a finisher diet from day 33 to 42. The 6 treatments were as follows:
As treatment RONOZYME® enzyme products, supplied by DSM Nutritional Products, Kaiseraugst, Switzerland have been used.
Ronozyme®AX=80% Ronozyme®WX+20% Ronozyme®A
Ronozyme® ProAct=pure protease product.
All birds received Cocci Vac® B on day 1 of age administered nasally in the hatchery except the positive control birds that were given a standard dose of the coccidiostat Salinomcyin of 60 g/ton of feed throughout the study
At the end of the trial at day 42 the average bird weight (Avg. Wt. Gain) and the average feed consumption (Feed Consump.) were determined and the Feed Conversion Ratio (FRC) was calculated by dividing the feed intake by the weight gain for each treatment

SMILES: CC[C@@H](C(=O)[C@@H](C)[C@@H](O)[C@H](C)[C@@H]1O[C@@H]([C@@H](CC)C(=O)O)CC[C@@H]1C)[C@H]1O[C@]2(C=C[C@@H](O)[C@]3(CC[C@@](C)([C@H]4CC[C@](O)(CC)[C@H](C)O4)O3)O2)[C@H](C)C[C@@H]1C [Salinomcyin 60 g/t, Salinomycin]
- Avg. Wt. Gain (average bird weight): 2.490 a
- Feed Consump. (average feed consumption): 191.58 a
- FCR (feed intake divided by weight gain): 1.719 days
